Literature values as cited in patent publication US20200138985A1, “KIT FOR LABELING A PROSTATE-SPECIFIC MEMBRANE ANTIGEN LIGAND WITH A RADIOACTIVE ISOTOPE” (Isotopia Molecular Imaging Ltd., priority 2015, published 2020).

Target: T1, PSMA (Homo sapiens, UniProt Q04609)
T1 construct: In cell research with PSMA-positive androgen-insensitive LNCaP-C4-2 cells; endogenous in cells; host or cells: LNCaP-C4-2 cells
Settings: PSMA-positive androgen-insensitive LNCaP-C4-2 cells

T1 sequence (Q04609 whole entry): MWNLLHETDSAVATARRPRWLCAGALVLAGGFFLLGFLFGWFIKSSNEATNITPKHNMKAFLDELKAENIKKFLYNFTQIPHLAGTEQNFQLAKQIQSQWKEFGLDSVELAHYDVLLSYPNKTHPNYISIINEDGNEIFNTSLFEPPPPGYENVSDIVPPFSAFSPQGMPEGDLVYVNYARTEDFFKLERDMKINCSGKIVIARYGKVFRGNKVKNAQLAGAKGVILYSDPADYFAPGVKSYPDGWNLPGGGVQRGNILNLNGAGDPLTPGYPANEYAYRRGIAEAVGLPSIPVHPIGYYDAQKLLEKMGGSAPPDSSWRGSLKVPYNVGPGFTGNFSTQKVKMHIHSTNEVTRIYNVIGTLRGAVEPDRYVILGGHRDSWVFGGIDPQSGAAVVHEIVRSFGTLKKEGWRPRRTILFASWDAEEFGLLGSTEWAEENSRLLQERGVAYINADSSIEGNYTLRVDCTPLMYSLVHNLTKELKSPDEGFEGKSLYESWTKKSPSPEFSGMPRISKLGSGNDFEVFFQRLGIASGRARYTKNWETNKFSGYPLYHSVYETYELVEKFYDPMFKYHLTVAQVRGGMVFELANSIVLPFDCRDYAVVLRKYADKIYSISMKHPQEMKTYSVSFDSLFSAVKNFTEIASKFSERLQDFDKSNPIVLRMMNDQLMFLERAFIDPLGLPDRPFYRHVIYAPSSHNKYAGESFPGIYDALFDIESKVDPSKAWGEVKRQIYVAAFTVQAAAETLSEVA

Kd [nM] | Substance
21.6 ± 0.4 | (5S,8S,22S,26S)-1-amino-5,8-dibenzyl-4,7,10,19,24-pentaoxo-3,6,9,18,23,25-hexaazaoctacosane-22,26,28-tricarboxylic acid (DUPA-Pep), conjugated with 1,4,7,10-tetraazacyclododecane-N,N,N′,N″-tetraacetic acid (DOTA)
≤ 14.7 | cyclohexyl-diethylene triamine pentaacetic acid-(5S,8S,22S,26S)-1-amino-5,8-dibenzyl-4,7,10,19,24-pentaoxo-3,6,9,18,23,25-hexaazaoctacosane-22,26,28- tricarboxylic acid [CHX-A″-DTPA-DUPA-Pep]
